Values joined by “and” are separate entries in the source; they are usually repeats but may differ in a detail not shown here. Equal entries are not always repeated.
Assays:
DYRK1B = biological target: T1, DYRK1B (Homo sapiens, UniProt Q9Y463); assay: DYRKs kinase activity assay (33P-ATP, DYRKtide substrate): DYRK1B; type: biochemical
T1 construct: purchased Reaction Biology Corporation (assay service)

DU145 cells = assay: Anti-proliferation activity assay (CCK8, 72 h); type: cell-based, human; conditions: for Relative proliferation rate (%) mean / Relative proliferation rate (%) / optical density: DU145; for Relative proliferation rate (%) / optical density: replicates
PC-3 cells = assay: Anti-proliferation activity assay (CCK8, 72 h); type: cell-based, human; conditions: for Relative proliferation rate (%) mean / Relative proliferation rate (%) / optical density: PC-3; for Relative proliferation rate (%) / optical density: replicates
RWPE-1 cells = assay: Anti-proliferation activity assay (CCK8, 72 h); type: cell-based; conditions: RWPE1; for Relative proliferation rate (%) / optical density: replicates

T1 sequence (Q9Y463 whole entry): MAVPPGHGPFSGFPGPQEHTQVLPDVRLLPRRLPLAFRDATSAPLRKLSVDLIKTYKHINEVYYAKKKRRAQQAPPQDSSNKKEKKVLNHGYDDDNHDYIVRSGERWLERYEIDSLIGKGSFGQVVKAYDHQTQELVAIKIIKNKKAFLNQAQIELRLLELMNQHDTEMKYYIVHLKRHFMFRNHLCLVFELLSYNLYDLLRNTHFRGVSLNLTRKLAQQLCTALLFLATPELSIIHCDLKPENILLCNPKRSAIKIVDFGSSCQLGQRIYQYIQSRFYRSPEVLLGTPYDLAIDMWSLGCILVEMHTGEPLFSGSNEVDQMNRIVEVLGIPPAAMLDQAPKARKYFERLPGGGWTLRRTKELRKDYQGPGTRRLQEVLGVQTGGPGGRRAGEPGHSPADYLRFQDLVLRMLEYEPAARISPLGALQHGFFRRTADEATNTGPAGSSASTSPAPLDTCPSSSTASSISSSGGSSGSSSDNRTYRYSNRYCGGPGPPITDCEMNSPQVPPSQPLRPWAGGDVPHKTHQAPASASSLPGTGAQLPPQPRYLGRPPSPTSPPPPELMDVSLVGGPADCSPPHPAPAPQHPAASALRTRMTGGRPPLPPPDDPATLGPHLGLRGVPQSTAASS

## CCN1CCN(C(=O)c2ccc(Nc3ncc(F)c(-c4ccc5nc(N(C)C)sc5c4)n3)nc2)CC1 [YK-2-69]
DYRK1B
  IC50: 542 nM
DYRK1B; 0.000762079 µM, duplicates
  % Inhibition DYRK1B: 3.06% and 6.85%
DYRK1B; 0.00228624 µM, duplicates
  % Inhibition DYRK1B: 3.24%
  inhibition at 0.00228624 µM: 5.73%
DYRK1B; 0.00685871 µM, duplicates
  % Inhibition DYRK1B: 11.00%
  inhibition at 0.00685871 µM: 7.22%
DYRK1B; 0.0205761 µM, duplicates
  % Inhibition DYRK1B: 13.48%
  inhibition at 0.0205761 µM: 9.47%
DYRK1B; 0.0617284 µM, duplicates
  % Inhibition DYRK1B: 24.87%
  inhibition at 0.0617284 µM: 26.4%
DYRK1B; 0.185185 µM, duplicates
  % Inhibition DYRK1B: 44.86%
  inhibition at 0.185185 µM: 44.6%
DYRK1B; 0.555556 µM, duplicates
  % Inhibition DYRK1B: 57.04%
  inhibition at 0.555556 µM: 57.3%
DYRK1B; 1.66667 µM, duplicates
  % Inhibition DYRK1B: 62.26%
DYRK1B; 5 µM, duplicates
  % Inhibition DYRK1B: 64.81%
  inhibition at 5 µM: 65.1%
DYRK1B; read-out: % Inhibition DYRK1B, 1.66667 µM, duplicates
  inhibition at 1.66667 µM: 62.7%
DYRK1B; vs DYRK2
  selectivity over DYRK1B: 60 fold
DU145 cells; 0.0049 uM
  Relative proliferation rate (%) mean: 5.845%
  Relative proliferation rate (%): 5.804% and 4.647% and 7.084%
  optical density: 0.99 and 0.985 and 1.01
DU145 cells; 0.078 uM
  Relative proliferation rate (%) mean: 13.2988%
  Relative proliferation rate (%): 13.2255% and 9.1% and 17.5713%
  optical density: 0.912 and 0.939 and 0.896
DU145 cells; 0.3125 uM
  Relative proliferation rate (%) mean: 23.3091%
  Relative proliferation rate (%): 23.3111% and 19.8451% and 26.7709%
  optical density: 0.806 and 0.828 and 0.796
DU145 cells; 1.25 uM
  Relative proliferation rate (%) mean: 41.9044%
  Relative proliferation rate (%): 41.8649% and 39.6902% and 44.1582%
  optical density: 0.611 and 0.623 and 0.607
DU145 cells; 5 uM
  Relative proliferation rate (%) mean: 55.1717%
  Relative proliferation rate (%): 55.1855% and 52.3717% and 57.9577%
  optical density: 0.471 and 0.492 and 0.457
DU145 cells; 20 uM
  Relative proliferation rate (%) mean: 69.2763%
  Relative proliferation rate (%): 69.3625% and 65.0532% and 73.4131%
  optical density: 0.322 and 0.361 and 0.289
DU145 cells; 80 uM
  Relative proliferation rate (%) mean: 80.2708%
  Relative proliferation rate (%): 80.3045% and 75.4114% and 85.0966%
  optical density: 0.207 and 0.254 and 0.162
DU145 cells; DU145 cells
  inhibitory activity against proliferation (in words): potent inhibitory activity
DU145 cells; Homo sapiens, DU-145, read-out: IC50 against proliferation
  IC50: 3300 nM
PC-3 cells; Homo sapiens, PC-3, read-out: IC50 against proliferation
  IC50: 1070 nM
PC-3 cells; 0.0049 uM
  Relative proliferation rate (%) mean: 6.648%
  Relative proliferation rate (%): 6.621% and 4.33% and 8.993%
  optical density: 0.945 and 0.95 and 0.931
PC-3 cells; 0.078 uM
  Relative proliferation rate (%) mean: 18.3188%
  Relative proliferation rate (%): 15.5138% and 18.3283% and 21.1144%
  optical density: 0.855 and 0.811 and 0.807
PC-3 cells; 0.3125 uM
  Relative proliferation rate (%) mean: 33.3383%
  Relative proliferation rate (%): 28.6561% and 33.3333% and 38.0254%
  optical density: 0.722 and 0.662 and 0.634
PC-3 cells; 1.25 uM
  Relative proliferation rate (%) mean: 54.3687%
  Relative proliferation rate (%): 47.8261% and 54.3807% and 60.8993%
  optical density: 0.528 and 0.453 and 0.4
PC-3 cells; 5 uM
  Relative proliferation rate (%) mean: 70.2315%
  Relative proliferation rate (%): 66.7984% and 70.1913% and 73.7048%
  optical density: 0.336 and 0.296 and 0.269
PC-3 cells; 20 uM
  Relative proliferation rate (%) mean: 81.0679%
  Relative proliferation rate (%): 78.6561% and 81.0675% and 83.48%
  optical density: 0.216 and 0.188 and 0.169
PC-3 cells; 80 uM
  Relative proliferation rate (%) mean: 88.776%
  Relative proliferation rate (%): 88.7352% and 82.578% and 95.0147%
  optical density: 0.114 and 0.173 and 0.051
PC-3 cells; PC-3 cells
  inhibitory activity against proliferation (in words): potent inhibitory activity
RWPE-1 cells; 0.078 uM
  Relative proliferation rate (%) mean: 1.172%
  Relative proliferation rate (%): 1.172% and 0.4794% and 1.866%
  optical density: 1.096 and 1.038 and 1.052
RWPE-1 cells; 0.3125 uM
  Relative proliferation rate (%) mean: 5.563%
  Relative proliferation rate (%): 5.591% and 3.3557% and 7.743%
  optical density: 1.047 and 1.008 and 0.989
RWPE-1 cells; 1.25 uM
  Relative proliferation rate (%) mean: 13.0424%
  Relative proliferation rate (%): 13.0748% and 7.862% and 18.1903%
  optical density: 0.964 and 0.961 and 0.877
RWPE-1 cells; 5 uM
  Relative proliferation rate (%) mean: 20.9606%
  Relative proliferation rate (%): 21.0099% and 16.7785% and 25.0933%

Source: publication PMC9133015 (Nature Communications, 2022)
